SMILES strings stand for the structures.

In one assay the target is T1, HDAC1 (Homo sapiens, UniProt Q13547).
T1 construct: purchased BPS Bioscience
The assay can be described thus: HDAC inhibition assay (Caliper EZ reader, FAM-labeled peptide substrate). Type of assay: biochemical. Conditions: recombinant human HDAC, 60 min at room temperature, 2 μM substrate. On the procedure:
(§1) All recombinant human HDACs were purchased from BPS Bioscience. The substrates, Broad Substrate A and Broad Substrate B (see International App. No. WO 2013/067391), were synthesized in-house. All other reagents were purchased from Sigma-Aldrich. […] Reactions were terminated by the addition of 1.5 μM of the known pan-HDAC inhibitor LBH-589 (panobinostat). […] The reactions were performed in duplicate for each sample.

Another assay concerns the target T2, HDAC2 (Homo sapiens, UniProt Q92769).
T2 construct: purchased BPS Bioscience
The assay is described as above. The assay is classed as biochemical. Conditions: recombinant human HDAC, 60 min at room temperature, 2 μM substrate. How it is done: as §1

For the next assay, the target named is T3, HDAC3 (Homo sapiens, UniProt O15379).
T3 construct: purchased BPS Bioscience
T3 sequence (O15379 whole entry): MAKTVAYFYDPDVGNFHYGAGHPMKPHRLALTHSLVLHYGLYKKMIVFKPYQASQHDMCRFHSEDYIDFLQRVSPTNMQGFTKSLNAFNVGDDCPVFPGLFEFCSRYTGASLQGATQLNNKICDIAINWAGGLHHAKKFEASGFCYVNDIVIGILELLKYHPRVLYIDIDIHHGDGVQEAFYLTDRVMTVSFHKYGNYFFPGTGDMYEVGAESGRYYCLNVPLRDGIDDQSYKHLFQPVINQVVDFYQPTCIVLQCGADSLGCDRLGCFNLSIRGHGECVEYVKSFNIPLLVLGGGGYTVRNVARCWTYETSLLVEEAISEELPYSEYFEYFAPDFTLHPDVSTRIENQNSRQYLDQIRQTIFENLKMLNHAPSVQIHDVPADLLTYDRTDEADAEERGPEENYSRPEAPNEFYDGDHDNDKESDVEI
T3 sequence (Q9Y618 395-489 partner limits assumed): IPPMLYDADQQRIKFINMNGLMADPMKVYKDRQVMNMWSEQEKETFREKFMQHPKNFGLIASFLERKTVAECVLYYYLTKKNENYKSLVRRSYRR
Described as above. Conditions: recombinant human HDAC, 60 min at room temperature, 2 μM substrate. The assay is classed as biochemical. How it is done:
as §1

Another assay addresses T4, HDAC5 (Homo sapiens, UniProt Q9UQL6).
T4 construct: purchased BPS Bioscience
The description is as above. The assay is classed as biochemical. To be noted: recombinant human HDAC, 60 min at room temperature, 2 μM substrate. How it is done:
as §1

Another assay has as its target T5, HDAC6 (Homo sapiens, UniProt Q9UBN7).
T5 construct: purchased BPS Bioscience
T5 sequence (Q9UBN7 1-1215): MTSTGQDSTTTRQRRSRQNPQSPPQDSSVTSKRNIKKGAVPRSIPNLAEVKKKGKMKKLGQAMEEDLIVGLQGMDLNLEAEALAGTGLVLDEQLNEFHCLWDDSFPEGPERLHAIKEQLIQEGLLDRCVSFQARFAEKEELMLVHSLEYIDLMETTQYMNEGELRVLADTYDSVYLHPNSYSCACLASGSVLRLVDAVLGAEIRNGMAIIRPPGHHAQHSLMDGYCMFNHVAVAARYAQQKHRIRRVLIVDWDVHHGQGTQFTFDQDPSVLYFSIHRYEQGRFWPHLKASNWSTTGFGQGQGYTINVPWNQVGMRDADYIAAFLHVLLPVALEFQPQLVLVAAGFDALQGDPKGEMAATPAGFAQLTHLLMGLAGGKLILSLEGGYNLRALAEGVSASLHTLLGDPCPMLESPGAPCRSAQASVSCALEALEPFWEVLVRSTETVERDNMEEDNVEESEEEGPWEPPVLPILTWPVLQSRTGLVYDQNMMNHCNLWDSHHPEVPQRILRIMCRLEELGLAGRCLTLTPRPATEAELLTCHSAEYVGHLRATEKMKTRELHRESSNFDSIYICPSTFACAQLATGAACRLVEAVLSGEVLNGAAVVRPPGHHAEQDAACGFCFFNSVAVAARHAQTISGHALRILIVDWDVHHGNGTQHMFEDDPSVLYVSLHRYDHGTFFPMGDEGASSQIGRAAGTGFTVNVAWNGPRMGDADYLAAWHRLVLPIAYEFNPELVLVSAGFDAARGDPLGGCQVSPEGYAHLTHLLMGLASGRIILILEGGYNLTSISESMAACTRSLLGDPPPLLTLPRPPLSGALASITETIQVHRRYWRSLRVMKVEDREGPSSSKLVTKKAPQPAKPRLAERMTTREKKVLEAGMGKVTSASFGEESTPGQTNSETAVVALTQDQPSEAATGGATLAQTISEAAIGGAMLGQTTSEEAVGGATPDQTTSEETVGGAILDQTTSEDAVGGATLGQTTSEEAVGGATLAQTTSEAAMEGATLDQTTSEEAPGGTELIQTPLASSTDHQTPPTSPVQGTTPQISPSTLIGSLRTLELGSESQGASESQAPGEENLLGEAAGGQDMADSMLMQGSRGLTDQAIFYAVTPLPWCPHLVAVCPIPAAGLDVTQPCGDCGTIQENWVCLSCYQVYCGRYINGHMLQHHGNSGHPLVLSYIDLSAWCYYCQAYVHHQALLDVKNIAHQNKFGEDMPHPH
The description is as above. The assay is classed as biochemical. Conditions: recombinant human HDAC, 60 min at room temperature, 2 μM substrate. On the procedure: as §1

The target of a further assay is T6, HDAC7 (Homo sapiens, UniProt Q8WUI4).
T6 construct: purchased BPS Bioscience
T6 sequence (Q8WUI4 1-952): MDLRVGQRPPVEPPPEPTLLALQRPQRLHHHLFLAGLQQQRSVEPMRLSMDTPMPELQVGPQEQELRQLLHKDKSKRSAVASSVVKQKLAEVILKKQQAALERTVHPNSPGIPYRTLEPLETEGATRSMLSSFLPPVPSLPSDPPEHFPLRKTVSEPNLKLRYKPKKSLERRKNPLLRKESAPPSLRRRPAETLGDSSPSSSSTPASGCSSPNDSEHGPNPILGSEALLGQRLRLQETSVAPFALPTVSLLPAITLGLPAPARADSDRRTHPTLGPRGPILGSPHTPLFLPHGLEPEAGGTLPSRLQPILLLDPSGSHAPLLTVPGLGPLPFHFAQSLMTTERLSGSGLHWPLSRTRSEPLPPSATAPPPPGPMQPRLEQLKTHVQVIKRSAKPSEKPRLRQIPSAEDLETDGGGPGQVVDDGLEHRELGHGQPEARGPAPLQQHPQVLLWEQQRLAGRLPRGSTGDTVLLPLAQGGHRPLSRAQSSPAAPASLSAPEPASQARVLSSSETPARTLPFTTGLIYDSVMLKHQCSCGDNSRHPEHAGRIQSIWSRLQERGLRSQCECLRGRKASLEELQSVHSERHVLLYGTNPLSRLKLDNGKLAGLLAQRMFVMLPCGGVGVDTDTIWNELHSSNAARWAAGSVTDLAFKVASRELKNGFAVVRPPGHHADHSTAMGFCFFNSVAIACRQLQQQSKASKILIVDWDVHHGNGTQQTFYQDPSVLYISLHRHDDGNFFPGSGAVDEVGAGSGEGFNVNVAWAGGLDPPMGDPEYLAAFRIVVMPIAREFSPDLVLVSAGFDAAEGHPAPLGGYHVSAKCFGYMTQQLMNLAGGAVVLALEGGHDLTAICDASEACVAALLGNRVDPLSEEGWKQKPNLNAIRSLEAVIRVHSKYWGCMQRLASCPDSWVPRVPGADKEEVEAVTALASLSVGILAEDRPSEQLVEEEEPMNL
The description is as above. The assay is classed as biochemical. To be noted: recombinant human HDAC, 60 min at room temperature, 2 μM substrate. How it is done: as §1

For a further assay, the target named is T7, HDAC8 (Homo sapiens, UniProt Q9BY41).
T7 construct: purchased BPS Bioscience
T7 sequence (Q9BY41 1-377): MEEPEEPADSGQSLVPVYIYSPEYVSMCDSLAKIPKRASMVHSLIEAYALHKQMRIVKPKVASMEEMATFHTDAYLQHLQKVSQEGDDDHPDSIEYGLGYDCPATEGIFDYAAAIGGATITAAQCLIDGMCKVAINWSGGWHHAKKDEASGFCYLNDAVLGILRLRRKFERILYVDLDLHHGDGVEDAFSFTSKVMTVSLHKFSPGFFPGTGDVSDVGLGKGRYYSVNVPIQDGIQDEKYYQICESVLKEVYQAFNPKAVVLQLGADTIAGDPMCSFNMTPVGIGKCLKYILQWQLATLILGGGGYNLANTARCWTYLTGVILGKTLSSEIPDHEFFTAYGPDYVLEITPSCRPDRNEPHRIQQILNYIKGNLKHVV
The assay is described as above. Type of assay: biochemical. To be noted: recombinant human HDAC, 60 min at room temperature, 2 μM substrate. How it is done:
as §1

A further assay has as its target T8, HDAC4 (Homo sapiens, UniProt P56524).
T8 construct: purchased BPS Bioscience
Described as above. The assay is classed as biochemical. Conditions: recombinant human HDAC, 60 min at room temperature, 2 μM substrate. How it is done:
as §1

Another assay concerns the target T9, HDAC9 (Homo sapiens, UniProt Q9UKV0).
T9 construct: purchased BPS Bioscience
Described as above. Type of assay: biochemical. Conditions: recombinant human HDAC, 60 min at room temperature, 2 μM substrate. On the procedure: as §1

A further assay has as its system HDAC. The assay can be described thus: In vivo PET imaging: blocking of whole brain uptake of the radiolabeled compound of Example 3. To be noted: self-blocking, 5 min pretreatment with 1.0 μg-2.0 mg/kg unlabeled compound; radiotracer of Example 3. Details: species or system rat. How it is done:
Male Sprague-Dawley rats were utilized in pairs, anesthetized with inhalational isoflurane (Forane) at 3% in a carrier of 1.5-2 L/min medical oxygen and maintained at 2% isoflurane for the duration of the scan. The rats were arranged head-to-head in a Triumph Trimodality PET/CT/SPECT scanner (Gamma Medica, Northridge, Calif.). Rats were injected standard references or vehicle via a lateral tail vein catheterization at the start of Positron Emission Tomography (PET) acquisition. Dynamic PET acquisition lasted for 60 min and was followed by computed tomography (CT) for anatomic co-registration. PET data were reconstructed using a 3D-MLEM method resulting in a full width at half-maximum resolution of 1 mm. Reconstructed images were exported from the scanner in DICOM format along with an anatomic CT for rodent studies. These files were imported to PMOD (PMOD Technologies, Ltd.) and manually coregistered using six degrees of freedom.
Volumes of interest (VOIs) were drawn manually as spheres in brain regions guided by high resolution CT structural images and summed PET data, with a radius no less than 1 mm to minimize partial volume effects. Time-activity curves (TACs) were exported in terms of decay corrected activity per unit volume at specified time points with gradually increasing intervals. The TACs were expressed as percent injected dose per unit volume for analysis.
Summed PET images following injection with the ^11C radiolabeled (E)-3-(4-((((1r,3R,5S)-adamantan-1-ylmethyl)(methyl)amino)methyl)phenyl)-N-hydroxyacrylamide (Example 3) at baseline or after 5 minutes pretreatment with 0.5 or 2.0 mg/kg unlabeled (E)-3-(4-((((1 r,3R,5 S)-adamantan-1-ylmethyl) (methyl)amino)methyl)phenyl)-N-hydroxyacrylamide illustrate brain uptake and self-blocking, as shown in FIG. 1A. Whole-brain tracer uptake levels, normalized to uptake at 10 min, were altered by 10-40% in self-blocking experiments with 5 min pretreatment with 1.0 μg-2.0 mg/kg unlabeled (E)-3-(4-((((1r,3R,5S)-adamantan-1-ylmethyl) (methyl)amino)methyl)phenyl)-N-hydroxyacrylamide, as shown in FIGS. 1B and 1C. This quantification provides a means to measure occupancy of HDAC targets on the basis of blocked binding of the radiolabeled compound of Example 3.
Whole brain uptake of the radiotracer of Example 3 was measured 4 h after acute systemic treatment.

T1 sequence (Q13547 whole entry): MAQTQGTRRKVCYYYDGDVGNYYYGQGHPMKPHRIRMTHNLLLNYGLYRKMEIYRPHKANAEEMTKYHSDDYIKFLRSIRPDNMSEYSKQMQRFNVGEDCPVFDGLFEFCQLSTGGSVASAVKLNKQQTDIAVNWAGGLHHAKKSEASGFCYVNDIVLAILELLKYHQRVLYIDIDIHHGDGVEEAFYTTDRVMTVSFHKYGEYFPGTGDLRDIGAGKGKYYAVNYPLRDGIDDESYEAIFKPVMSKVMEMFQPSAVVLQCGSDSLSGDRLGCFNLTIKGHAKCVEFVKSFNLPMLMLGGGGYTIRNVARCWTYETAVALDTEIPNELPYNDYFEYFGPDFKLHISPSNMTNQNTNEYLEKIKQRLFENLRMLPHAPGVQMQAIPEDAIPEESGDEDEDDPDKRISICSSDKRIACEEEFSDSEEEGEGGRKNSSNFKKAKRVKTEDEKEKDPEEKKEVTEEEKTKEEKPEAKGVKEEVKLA
T2 sequence (Q92769 whole entry): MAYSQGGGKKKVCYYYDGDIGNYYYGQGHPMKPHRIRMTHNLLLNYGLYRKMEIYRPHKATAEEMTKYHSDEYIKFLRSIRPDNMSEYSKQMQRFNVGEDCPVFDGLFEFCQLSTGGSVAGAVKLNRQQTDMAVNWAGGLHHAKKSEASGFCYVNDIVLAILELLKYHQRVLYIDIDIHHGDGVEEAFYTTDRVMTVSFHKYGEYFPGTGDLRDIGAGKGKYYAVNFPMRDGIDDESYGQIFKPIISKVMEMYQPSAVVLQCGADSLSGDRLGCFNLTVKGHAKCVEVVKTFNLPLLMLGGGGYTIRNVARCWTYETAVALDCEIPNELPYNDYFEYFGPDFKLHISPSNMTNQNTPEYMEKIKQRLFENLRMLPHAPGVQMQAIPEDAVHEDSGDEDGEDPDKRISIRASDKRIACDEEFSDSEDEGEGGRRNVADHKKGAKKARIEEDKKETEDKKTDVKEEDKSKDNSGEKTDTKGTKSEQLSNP
T4 sequence (Q9UQL6 whole entry): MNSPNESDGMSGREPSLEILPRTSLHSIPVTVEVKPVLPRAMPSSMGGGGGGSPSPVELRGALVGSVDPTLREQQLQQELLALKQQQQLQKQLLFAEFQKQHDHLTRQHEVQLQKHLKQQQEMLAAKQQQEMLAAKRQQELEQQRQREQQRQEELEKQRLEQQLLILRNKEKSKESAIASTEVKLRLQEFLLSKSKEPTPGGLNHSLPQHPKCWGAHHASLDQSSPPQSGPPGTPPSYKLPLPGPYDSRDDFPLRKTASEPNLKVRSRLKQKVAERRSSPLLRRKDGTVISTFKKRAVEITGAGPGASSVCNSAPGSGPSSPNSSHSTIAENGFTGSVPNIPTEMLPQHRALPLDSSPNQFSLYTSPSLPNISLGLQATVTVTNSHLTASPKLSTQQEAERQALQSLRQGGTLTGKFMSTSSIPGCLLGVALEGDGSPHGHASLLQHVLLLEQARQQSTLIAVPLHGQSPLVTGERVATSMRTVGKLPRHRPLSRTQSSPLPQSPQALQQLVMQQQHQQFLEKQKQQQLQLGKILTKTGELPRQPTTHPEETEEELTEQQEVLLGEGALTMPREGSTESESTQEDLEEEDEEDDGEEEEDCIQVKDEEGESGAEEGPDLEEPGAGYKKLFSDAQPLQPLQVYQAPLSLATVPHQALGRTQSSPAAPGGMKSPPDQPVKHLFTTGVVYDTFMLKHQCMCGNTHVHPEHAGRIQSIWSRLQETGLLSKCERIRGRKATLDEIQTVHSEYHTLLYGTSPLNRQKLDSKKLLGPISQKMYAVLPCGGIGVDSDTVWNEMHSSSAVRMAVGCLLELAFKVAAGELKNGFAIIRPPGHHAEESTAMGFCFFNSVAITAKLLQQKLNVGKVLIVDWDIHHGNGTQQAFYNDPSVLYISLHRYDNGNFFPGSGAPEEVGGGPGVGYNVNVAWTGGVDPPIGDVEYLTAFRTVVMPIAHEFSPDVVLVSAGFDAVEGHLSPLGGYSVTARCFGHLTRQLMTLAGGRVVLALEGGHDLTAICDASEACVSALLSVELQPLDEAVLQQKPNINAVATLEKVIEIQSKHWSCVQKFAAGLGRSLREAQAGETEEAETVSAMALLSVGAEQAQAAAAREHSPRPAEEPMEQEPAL
T8 sequence (P56524 whole entry): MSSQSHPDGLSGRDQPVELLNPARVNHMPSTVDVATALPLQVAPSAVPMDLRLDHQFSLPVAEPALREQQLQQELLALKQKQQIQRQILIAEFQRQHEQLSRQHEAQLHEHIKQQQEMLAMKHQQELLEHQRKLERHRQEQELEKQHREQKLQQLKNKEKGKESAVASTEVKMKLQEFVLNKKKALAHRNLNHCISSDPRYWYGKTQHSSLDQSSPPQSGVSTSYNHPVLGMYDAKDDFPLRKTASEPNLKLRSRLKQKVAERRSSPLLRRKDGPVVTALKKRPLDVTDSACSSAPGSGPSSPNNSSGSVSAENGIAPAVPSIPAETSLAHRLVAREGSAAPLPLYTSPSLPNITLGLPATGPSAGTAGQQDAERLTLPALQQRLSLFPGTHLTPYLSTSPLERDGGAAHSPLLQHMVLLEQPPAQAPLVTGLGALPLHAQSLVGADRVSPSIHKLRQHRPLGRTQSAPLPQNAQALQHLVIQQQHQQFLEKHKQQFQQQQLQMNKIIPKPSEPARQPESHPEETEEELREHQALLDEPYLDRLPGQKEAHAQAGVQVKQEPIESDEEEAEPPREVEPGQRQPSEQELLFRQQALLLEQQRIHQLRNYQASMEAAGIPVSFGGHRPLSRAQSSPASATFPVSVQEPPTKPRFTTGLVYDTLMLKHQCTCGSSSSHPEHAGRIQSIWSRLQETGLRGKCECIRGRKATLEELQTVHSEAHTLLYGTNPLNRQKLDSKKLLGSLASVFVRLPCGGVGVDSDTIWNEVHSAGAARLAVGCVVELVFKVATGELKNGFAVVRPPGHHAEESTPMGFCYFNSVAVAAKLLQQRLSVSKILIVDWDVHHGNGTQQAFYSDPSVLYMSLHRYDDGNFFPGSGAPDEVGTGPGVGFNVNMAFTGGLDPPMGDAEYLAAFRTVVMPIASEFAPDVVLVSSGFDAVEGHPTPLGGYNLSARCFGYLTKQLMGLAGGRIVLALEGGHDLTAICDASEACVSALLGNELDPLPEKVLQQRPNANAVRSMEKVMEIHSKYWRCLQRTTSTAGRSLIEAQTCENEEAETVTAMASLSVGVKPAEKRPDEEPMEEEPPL
T9 sequence (Q9UKV0 whole entry): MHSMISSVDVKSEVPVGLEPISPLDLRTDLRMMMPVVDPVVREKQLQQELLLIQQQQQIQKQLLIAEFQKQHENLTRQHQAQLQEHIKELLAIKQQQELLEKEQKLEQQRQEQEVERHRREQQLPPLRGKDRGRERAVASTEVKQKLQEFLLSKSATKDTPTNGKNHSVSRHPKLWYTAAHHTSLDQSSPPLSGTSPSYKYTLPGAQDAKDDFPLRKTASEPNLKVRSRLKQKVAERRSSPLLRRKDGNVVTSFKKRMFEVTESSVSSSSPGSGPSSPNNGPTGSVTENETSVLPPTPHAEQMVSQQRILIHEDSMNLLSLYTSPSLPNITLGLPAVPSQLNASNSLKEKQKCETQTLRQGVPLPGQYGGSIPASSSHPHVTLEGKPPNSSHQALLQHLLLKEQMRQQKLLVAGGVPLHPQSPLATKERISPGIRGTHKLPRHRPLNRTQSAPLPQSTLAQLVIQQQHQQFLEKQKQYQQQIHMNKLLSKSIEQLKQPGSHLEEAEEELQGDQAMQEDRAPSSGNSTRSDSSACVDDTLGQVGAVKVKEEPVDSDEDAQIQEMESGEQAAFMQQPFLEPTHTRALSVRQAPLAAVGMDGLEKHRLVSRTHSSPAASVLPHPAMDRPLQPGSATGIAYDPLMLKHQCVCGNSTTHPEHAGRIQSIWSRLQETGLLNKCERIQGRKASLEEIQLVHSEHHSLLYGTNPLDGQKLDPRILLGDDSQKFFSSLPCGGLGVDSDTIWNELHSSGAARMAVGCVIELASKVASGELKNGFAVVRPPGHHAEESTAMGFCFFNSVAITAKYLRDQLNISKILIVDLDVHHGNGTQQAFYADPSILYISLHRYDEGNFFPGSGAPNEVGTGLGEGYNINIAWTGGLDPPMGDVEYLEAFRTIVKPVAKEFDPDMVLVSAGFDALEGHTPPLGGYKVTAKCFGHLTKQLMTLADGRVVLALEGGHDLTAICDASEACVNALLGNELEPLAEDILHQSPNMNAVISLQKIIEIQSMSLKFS

With `CN(Cc1ccc(/C=C/C(=O)Nc2ccccc2N)cc1)CC12CC3CC(CC(C3)C1)C2` [drawing 61], the IC50 (commonly the concentration needed to halve the response being measured) at HDAC1 is 149 nM; at HDAC2, 602 nM; on HDAC3, 216 nM; on HDAC5 it was above 40000 nM; at HDAC6 it was above 10000 nM; at HDAC7, above 40000 nM. Further, at HDAC8, the half-maximal inhibitory concentration (IC50) was above 40000 nM.

As to `O=C(/C=C/c1ccc(CN(CCF)CC23CC4CC(CC(C4)C2)C3)cc1)NO`, the IC50 at HDAC1 is 222 nM; at HDAC2 it was 651 nM; at HDAC3, 470 nM; at HDAC4, above 12000 nM; on HDAC5 it was above 5000 nM; on HDAC6, 308 nM. Besides, the IC50 at HDAC7, at HDAC8 and at HDAC9 was above 30000 nM each time.

As for `CN(Cc1ccc(/C=C/C(=O)NO)cc1)CC12CC3CC(CC(C3)C1)C2` [Example 1, (E)-3-(4-((((1r,3R,5S)-adamantan-1-ylmethyl)(methyl)amino)methyl)phenyl)-N-hydroxyacrylamide], the “Whole-brain tracer uptake levels, normalized to uptake at 10 min, altered by” value in the assay on HDAC is listed as 10-40%.

Take `O=C(/C=C/c1ccc(CNCC23CC4CC(CC(C4)C2)C3)c(F)c1)NO`: the IC50 at HDAC1 was 0.8 nM; on HDAC2, 6.4 nM; at HDAC3 it was 0.5 nM; at HDAC4, above 70000 nM; on HDAC5, 4310 nM; at HDAC6, above 40000 nM. Besides, the results for the IC50 at HDAC7, at HDAC8 and at HDAC9 were above 70000 nM, above 5000 nM and above 50000 nM, respectively.

The record behind these values is patent US20170349540A1, “HISTONE DEACETYLASE INHIBITORS” (The General Hospital Corporation, priority 2014, published 2017).
